Test results: patent US12661355B2, “Compounds and methods for inducing UCP1 expression” (The Regents of the University of California, priority 2020, dated 2026)

Columns and labels:
[1] = target: T1, cGMP-dependent kinase 1 (PKG-1) (Mus musculus, UniProt P0C605); experiment: CETSA in brown adipocytes, PKG-1; type: binding; details: 10 μM for 8 h
T1 construct: endogenous in cells; host or cells: immortalized mouse brown adipocytes
Procedure: (§1) CETSA assays were performed according to known methods. Briefly, differentiated brown adipocytes (one 10 cm dish per treatment) were treated with vehicle or compounds, trypsinized, counted, and re-suspended in approximately 450 μl PBS containing protease inhibitors (volumes were adjusted to have the same number of cells in each treatment). For each sample, 18 μl was distributed into each of 7 PCR tubes. Samples were heated using a thermocycler with a temperature gradient (iCycler, Biorad) for 3 min, followed by 3 min at room temperature, and then snap-frozen in liquid N2. After two freeze-thaw cycles, samples were centrifuged at 20,000 g for 15 min at 4° C., and the supernatants were transferred to another set of tubes. Proteins were analyzed by immunoblotting.
(§2) The potential interaction of Z160 with PKA subunits and AKAPs was assessed first by identifying which PKA subunits and AKAP isoforms are normally present in BAT. […] To perform the CETSA assays, cultured brown adipocytes were incubated with 10 μM Z160 for 8 h, after which the thermal shift was analyzed by Western blot.

[2] = target: T2, AKAP1 (Rattus norvegicus, UniProt O88884); experiment: DARTS in H9c2 cell extracts, AKAP1; type: binding; details: 20 μM, 1 h
T2 construct: DARTS assay in H9c2 cell extracts treated with vehicle or 20 μM Z160 for 1 h; endogenous in cells; host or cells: rat H9c2 cells
Procedure: Rat H9c2 cells were grown in DMEM supplemented with 10% FBS, 25 mM glucose, 1 mM pyruvate, and 2 mM glutamine Neonatal rat ventricular myocytes (NRVM) were isolated and cultured as previously described. Briefly, 2-4 day old rats were sacrificed and myocytes and fibroblasts were isolated and separated using a Percoll density gradient. Following isolation, NRVMs were plated on gelatin-coated plates in DMEM containing 10% FBS, 25 mM glucose, 1 mM pyruvate, and 2 mM glutamine The next day, FBS was replaced by 1× insulin-transferrin-selenium supplement and the cells were treated with vehicle or 10 μM Z160 for 2 days, with or without 60 μM isoproterenol or 50 μM phenylephrine.
[…] assays were performed according to known methods. Briefly, BAT or cells within a 10 cm dish were lysed with 600 μl M-PER buffer containing protease and phosphatase inhibitors. Debris was pelleted by centrifugation at 18,000 g for 10 min at 4° C., and the lysates were harvested and supplemented with TNC buffer (50 mM Tris-HCl, 50 mM NaCl, 10 mM CaCl2). The lysates were split into two tubes and treated with either vehicle or 20 μM Z160 for 1 h at room temperature. For experiment with BAT, 100 μg of lysate was incubated with different Z160 concentrations. […]

[3] = tested on: CYTC and GAPDH; experiment: Western blot of mitochondria-associated proteins, CYTC and GAPDH; type: cell-based, mouse; details: brown adipocytes, 10 μM
Procedure: Cells and tissues were lysed in 10 mM Tris pH 7.5, 10 mM NaCl, 1 mM EDTA and 0.5% Triton X-100, supplemented with complete mini EDTA-free protease (Roche Diagnostics) and phosphatase (Cocktail 2 and 3, Sigma) inhibitors, followed by 10 second sonication. For analysis of mitochondrial proteins, mitochondria were isolated from cells by dual centrifugation, as described. Protein lysates were separated by SDS-PAGE and transferred to a nitrocellulose membrane. Transfer was confirmed by Ponceau staining (P7170, Sigma). After blocking in 5% milk, 0.1% Tween-20 in Tris-buffered saline (TBS), primary antibody was incubated overnight at 4° C. in 5% bovine serum albumin and 0.1% Tween-20 in TBS. Primary antibodies against ACTB (GTX109639, GeneTex), AKAP1 (5203, Cell Signaling), AKAP6 (07-087, Millipore), Cytochrome c (136F3, Cell Signaling), electron transport chain protein complexes (Total OXPHOS rodent WB antibody cocktail ab110413, Abcam), GAPDH (GTX100118, Genetex), active p38 MAPK (V1211, Promega), total p38 MAPK (8690, Cell Signaling), PGC1α (AB3242, Millipore), phospho-(Ser/Thr) PKA substrate (9621, Cell Signaling), PKA C-α (4782, Cell Signaling), PKA RII-β (ab75993, Abcam), and UCP1 (662045, Calbiochem) were used at 1:2000. […] Quantification using representative bands from the Ponceau staining was performed with ImageJ. […]

[4] = target: T3, AKAP6 (Mus musculus, UniProt E9Q9K8); experiment: CETSA in brown adipocytes, AKAP6; type: binding; details: 10 μM for 8 h
T3 construct: endogenous in cells; host or cells: immortalized mouse brown adipocytes
Procedure: as §1, §2

T1 sequence (P0C605 whole entry): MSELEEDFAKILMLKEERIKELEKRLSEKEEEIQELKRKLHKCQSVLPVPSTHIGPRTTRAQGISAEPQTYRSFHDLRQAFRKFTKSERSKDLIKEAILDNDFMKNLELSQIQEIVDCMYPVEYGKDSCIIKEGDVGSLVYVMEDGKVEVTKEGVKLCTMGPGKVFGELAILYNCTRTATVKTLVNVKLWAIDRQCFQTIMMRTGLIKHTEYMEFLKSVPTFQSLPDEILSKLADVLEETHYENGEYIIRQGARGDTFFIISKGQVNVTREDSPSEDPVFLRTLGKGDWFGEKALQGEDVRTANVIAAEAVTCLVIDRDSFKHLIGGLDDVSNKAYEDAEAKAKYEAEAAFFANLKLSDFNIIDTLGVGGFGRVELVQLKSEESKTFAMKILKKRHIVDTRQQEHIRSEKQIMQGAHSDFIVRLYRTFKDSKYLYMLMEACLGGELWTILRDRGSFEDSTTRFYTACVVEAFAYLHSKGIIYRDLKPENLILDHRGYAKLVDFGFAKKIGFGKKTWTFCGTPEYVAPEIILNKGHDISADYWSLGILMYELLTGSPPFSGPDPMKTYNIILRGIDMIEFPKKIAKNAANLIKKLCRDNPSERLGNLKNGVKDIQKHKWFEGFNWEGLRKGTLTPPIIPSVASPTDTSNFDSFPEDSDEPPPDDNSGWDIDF
T3 sequence (E9Q9K8 1-2307): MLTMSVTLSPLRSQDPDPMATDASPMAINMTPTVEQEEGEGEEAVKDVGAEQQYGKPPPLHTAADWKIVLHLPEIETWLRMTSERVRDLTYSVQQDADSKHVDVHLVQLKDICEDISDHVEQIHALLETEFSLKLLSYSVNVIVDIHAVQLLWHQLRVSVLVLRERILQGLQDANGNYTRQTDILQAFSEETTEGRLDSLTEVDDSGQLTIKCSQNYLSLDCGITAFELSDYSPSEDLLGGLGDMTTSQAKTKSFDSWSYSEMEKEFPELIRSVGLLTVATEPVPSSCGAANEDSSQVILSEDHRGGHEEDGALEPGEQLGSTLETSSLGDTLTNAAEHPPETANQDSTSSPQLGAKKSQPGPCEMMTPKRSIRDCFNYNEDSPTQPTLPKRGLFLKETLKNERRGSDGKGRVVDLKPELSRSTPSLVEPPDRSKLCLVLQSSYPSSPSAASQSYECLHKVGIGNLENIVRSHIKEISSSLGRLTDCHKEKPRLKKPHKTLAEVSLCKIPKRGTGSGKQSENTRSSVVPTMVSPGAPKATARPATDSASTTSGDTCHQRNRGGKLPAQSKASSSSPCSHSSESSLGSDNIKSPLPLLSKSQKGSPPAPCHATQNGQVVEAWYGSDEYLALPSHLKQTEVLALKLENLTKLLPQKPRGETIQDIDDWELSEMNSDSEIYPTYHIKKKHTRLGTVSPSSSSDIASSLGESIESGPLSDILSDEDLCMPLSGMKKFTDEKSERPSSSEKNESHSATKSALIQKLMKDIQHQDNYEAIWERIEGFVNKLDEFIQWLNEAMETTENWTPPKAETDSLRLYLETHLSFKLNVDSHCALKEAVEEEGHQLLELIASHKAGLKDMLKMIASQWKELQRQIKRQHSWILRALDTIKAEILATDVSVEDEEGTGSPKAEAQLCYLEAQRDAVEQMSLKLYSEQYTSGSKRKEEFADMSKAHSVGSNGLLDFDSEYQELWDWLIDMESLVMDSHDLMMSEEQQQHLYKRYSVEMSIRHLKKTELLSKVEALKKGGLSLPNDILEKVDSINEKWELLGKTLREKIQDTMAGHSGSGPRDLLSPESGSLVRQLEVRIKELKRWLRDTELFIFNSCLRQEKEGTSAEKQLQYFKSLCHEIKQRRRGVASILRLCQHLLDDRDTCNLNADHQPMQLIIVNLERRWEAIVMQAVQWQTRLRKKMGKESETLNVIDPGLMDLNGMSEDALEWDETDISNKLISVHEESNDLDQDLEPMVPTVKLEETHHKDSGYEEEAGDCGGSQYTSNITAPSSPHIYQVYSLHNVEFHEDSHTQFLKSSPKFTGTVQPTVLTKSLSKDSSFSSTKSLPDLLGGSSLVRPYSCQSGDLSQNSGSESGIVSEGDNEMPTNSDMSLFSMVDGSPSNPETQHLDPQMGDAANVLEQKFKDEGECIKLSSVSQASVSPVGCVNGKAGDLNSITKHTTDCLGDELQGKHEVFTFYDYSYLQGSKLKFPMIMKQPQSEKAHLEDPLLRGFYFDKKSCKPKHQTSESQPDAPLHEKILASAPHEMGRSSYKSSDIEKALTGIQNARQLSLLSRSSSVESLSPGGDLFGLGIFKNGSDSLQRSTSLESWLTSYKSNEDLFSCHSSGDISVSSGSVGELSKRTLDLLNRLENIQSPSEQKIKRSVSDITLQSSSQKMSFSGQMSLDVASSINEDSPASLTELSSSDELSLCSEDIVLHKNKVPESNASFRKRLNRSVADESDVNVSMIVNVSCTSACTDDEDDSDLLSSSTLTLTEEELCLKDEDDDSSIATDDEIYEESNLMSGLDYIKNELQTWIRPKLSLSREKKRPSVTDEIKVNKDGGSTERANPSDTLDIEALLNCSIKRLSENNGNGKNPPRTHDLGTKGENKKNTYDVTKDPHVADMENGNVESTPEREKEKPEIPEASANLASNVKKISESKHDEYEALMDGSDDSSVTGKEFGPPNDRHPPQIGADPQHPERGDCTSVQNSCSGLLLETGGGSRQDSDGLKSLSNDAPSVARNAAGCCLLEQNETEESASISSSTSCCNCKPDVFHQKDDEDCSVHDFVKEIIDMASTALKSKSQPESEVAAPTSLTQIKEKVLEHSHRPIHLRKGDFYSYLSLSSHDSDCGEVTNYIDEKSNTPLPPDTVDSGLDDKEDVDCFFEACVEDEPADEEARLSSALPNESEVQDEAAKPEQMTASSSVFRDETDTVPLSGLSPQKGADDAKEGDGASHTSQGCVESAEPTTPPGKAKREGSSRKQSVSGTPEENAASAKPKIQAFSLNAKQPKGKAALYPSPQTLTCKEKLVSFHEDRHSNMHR
T2 sequence (O88884 30-854): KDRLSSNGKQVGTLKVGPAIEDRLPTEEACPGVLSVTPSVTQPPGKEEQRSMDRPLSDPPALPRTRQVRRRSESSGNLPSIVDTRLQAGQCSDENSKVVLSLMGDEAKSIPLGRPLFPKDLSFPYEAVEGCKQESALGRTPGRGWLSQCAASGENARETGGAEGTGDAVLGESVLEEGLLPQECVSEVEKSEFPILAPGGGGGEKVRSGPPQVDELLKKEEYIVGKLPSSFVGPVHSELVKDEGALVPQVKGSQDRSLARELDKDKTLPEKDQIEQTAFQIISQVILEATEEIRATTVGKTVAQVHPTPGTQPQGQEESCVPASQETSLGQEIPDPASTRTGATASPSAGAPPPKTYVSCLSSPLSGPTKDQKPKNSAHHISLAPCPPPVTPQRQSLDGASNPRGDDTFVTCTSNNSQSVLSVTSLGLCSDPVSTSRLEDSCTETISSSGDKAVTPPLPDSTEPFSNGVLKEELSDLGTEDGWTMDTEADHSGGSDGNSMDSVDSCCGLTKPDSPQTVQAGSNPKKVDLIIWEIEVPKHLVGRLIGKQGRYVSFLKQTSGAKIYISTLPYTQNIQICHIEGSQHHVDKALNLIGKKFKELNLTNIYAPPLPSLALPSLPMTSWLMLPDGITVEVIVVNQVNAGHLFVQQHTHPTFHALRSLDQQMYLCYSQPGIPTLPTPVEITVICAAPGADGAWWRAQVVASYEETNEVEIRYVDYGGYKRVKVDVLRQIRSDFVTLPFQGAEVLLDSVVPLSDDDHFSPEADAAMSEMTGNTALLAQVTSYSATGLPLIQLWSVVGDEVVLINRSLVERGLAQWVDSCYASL

SMILES: COc1ccc(NC(=O)CSc2nc3ccccc3c(=O)[nH]2)c(OC)c1 [Z160]
- heat stability of PKG-1 [1]: did not influence the heat stability
- pronase susceptibility of AKAP1 [2]: not
- levels of CYTC and GAPDH in the mitochondrial fraction [3]: not altered
- heat stability of AKAP6 [4]: did not influence the heat stability
